Consider 2 compounds from patent US20060106085A1, “Methods and compositions using PDE4 modulators for treatment and management of central nervous system injury” (priority 2004, published 2006).

The subject of data set [1] is TNF-α production from human PBMC. Kind of data set: LPS-induced TNF-α production from human PBMC. The data set is classed as cell-based. Particulars: LPS 100 ng/ml, compound added 1 hour before LPS, 18-20 hours, ELISA. As for the experimental part: Inhibition of TNF-α production following LPS-stimulation of human PBMC and human whole blood by 3-(3,4-dimethoxy-phenyl)-3-(1-oxo-1,3-dihydro-isoindol-2-yl)-propionamide is investigated in vitro (Muller et al., Bioorg. Med. Chem. Lett. 9:1625-1630, 1999). The IC50's of 3-(3,4-dimethoxy-phenyl)-3-(1-oxo-1,3-dihydro-isoindol-2-yl)-propionamide for inhibiting production of TNF-α following LPS-stimulation of PBMC and human whole blood is measured.
For example, 3-(3,4-dimethoxy-phenyl)-3-(1-oxo-1,3-dihydro-isoindol-2-yl)-propionamide was tested for the ability to inhibit LPS-induced TNF-α production from human PBMC as previously described (Muller et al. 1996, J. Med. Chem. 39:3238). PBMC from normal donors were obtained by Ficoll Hypaque (Pharmacia, Piscataway, N.J., USA) density centrifugation. Cells were cultured in RPMI (Life Technologies, Grand Island, N.Y., USA) supplemented with 10% AB±human serum (Gemini Bio-products, Woodland, Calif., USA), 2 mM L-glutamine, 100 U/ml penicillin, and 100 μg/ml streptomycin (Life Technologies).
PBMC (2×10^5 cells) were plated in 96-well flat-bottom Costar tissue culture plates (Corning, N.Y., USA) in triplicate. Cells were stimulated with LPS (Sigma, St. Louis, Mo., USA) at 100 ng/ml in the absence or presence of compounds. […]
(In an ELISA, binding on a coated surface is turned into a signal by an enzyme label.)

The test system is the same in data set [2]. Kind of data set: IL-1β-induced TNF-α production from human PBMC. The data set is classed as cell-based. Particulars: 50 ng/ml recombinant human IL-1β, 18 hours. On the procedure:
During the course of inflammatory diseases, TNF-α production is often stimulated by the cytokine 1L-1β rather than by bacterially derived LPS. 3-(3,4-Dimethoxy-phenyl)-3-(1-oxo-1,3-dihydro-isoindol-2-yl)-propionamide was tested for the ability to inhibit IL-1β-induced TNF-α production from human PBMC as described above for LPS-induced TNF-α production, except that the PBMC are isolated from source leukocyte units (Sera-Tec Biologicals, North Brunswick, N.J., USA) by centrifugation on Ficoll-Paque Plus (Amersham Pharmacia, Piscataway, N.J., USA), plated in 96-well tissue culture plates at 3×10^5 cells/well in RPMI-1640 medium (BioWhittaker, Walkersville, Md., USA) containing 10% heat-inactivated fetal bovine serum (Hyclone), 2 mM L-glutamine, 100 U/ml penicillin, and […] (complete medium), pretreated with compounds at 10, 2, 0.4, 0.08, 0.016, 0.0032, 0.00064, and 0 μM in duplicate at a final DMSO concentration of 0.1% at 37° C. in a humidified incubator at 5% CO2 for 1 hour, then stimulated with 50 ng/ml recombinant human IL-1β (Endogen) for 18 hours.

Data set [3] has as its system PDE4. Briefly: Inhibition of PDE4 enzyme purified from U937 human monocytic cells. The data set is classed as biochemical. The settings on record: 1 μM cAMP, 30 min at 30° C. As for the experimental part:
PDE4 enzyme was purified from U937 human monocytic cells by gel filtration chromatography as previously described (Muller et al. 1998, Bioorg. & Med Chem Lett 8:2669-2674). Phosphodiesterase reactions were carried out in 50 mM Tris HCl pH 7.5, 5 mM MgCl2, 1 μM cAMP, 10 nM [^311)-cAMP for 30 min at 30° C., terminated by boiling, treated with 1 mg/ml snake venom, and separated using AG-1×S ion exchange resin (BioRad) as described (Muller et al. 1998, Bioorg. & Med Chem Lett 8:2669-2674). Reactions consumed less than 15% of available substrate.

A short description of data set [4]: Cardiovascular and respiratory function in anesthetized dogs. In kind it is in vivo. The settings on record: anesthetized Beagle dogs, 400, 800, and 1,200 mg/kg/day ascending doses, infusion through the jugular vein, compared to vehicle control. As for the experimental part: The effects of 3-(3,4-dimethoxy-phenyl)-3-(1-oxo-1,3-dihydro-isoindol-2-yl)-propionamide on cardiovascular and respiratory function are investigated in anesthetized dogs. Two groups of Beagle dogs (2/sex/group) are used. One group receives three doses of vehicle only and the other receives three ascending doses of 3-(3,4-dimethoxy-phenyl)-3-(1-oxo-1,3-dihydro-isoindol-2-yl)-propionamide (400, 800, and 1,200 mg/kg/day). In all cases, doses of 3-(3,4-dimethoxy-phenyl)-3-(1-oxo-1,3-dihydro-isoindol-2-yl)-propionamide or vehicle are successively administered via infusion through the jugular vein separated by intervals of at least 30 minutes.

Data set [5] deals with spinal cord contusion. The settings on record: cited from earlier work.

Broadly, the IC50 is the concentration needed to halve the response being measured. Take `COc1ccc(C(CC(N)=O)N2Cc3ccccc3C2=O)cc1OC` (stereo not shown) [3-(3,4-dimethoxy-phenyl)-3-(1-oxo-1,3-dihydro-isoindol-2-yl)-propionamide]: the half-inhibitory concentration (IC50) amounted to 21 µM in data set [1], 16 µM in data set [2] and 15 µM in data set [3]. Moreover, in data set [4], the “cardiovascular and respiratory changes” value is “minimal at all doses”.
In the case of `COc1ccc(C2CNC(=O)C2)cc1OC1CCCC1` (stereo not shown) [rolipram], the locomotion result in data set [5] (combination of rolipram with db-cAMP) is recorded as “improved locomotion”. Moreover, in data set [5] (combined with Schwann cell grafts), the “axon sparing and myelination” value is “promoted significant supraspinal and proprioceptive axon sparing and myelination”. Also, the “cAMP levels after spinal cord contusion” value in data set [5] (rolipram alone) was “prevented the decrease of cAMP levels”.
